Test results taken from paper PMC3985299, “Single Ascending Dose Safety and Pharmacokinetics of CDRI-97/78: First-in-Human Study of a Novel Antimalarial Drug” (Malaria Research and Treatment, 2014).
Entries after “also recorded” stand apart in the source; their conditions may differ.

How the values were obtained:
healthy human volunteers [1] = assay: Single ascending dose study: clinical parameters (blood pressure, pulse rate, respiratory rate, corrected QT); type: in vivo; design: SBP / DBP: unit not given here; conditions: for DBP / SBP: 2 hours after drug administration; for Diastolic blood pressure: 600 and 700 mg group
Source text: The volunteers after giving informed consent were screened. The screening process was done latest within 1 month of admission for dosing. The volunteers who fulfilled the inclusion/exclusion criteria were admitted in the CPU the night before drug administration. Standardized dinner was served at 9 pm the night prior to dosing. On day 0, baseline blood sample for biochemical and haematological examination and stool and urine samples for routine and microscopy were taken. They received the study drug, according to the randomization sequence, under supervision. The empty packaging was returned to the container. The volunteers received drug as per randomization. Breakfast was given half an hour after drug administration. Subsequently, standardized lunch and dinner were served to the volunteers.
The subjects were attached to a cardiac monitor and vital HR, BP, ECG, oxygen saturation, and RR were recorded. Corrected QT interval using Fridericia's formula was calculated. Adverse events were assessed at specific time points (0.5, 1, 2, 4, 6, 8, 12, and 24 hrs after medication). Unscheduled monitoring was undertaken whenever it felt necessary. The volunteers were discharged after 24 hrs and they had to return at 48 hrs and on the 7th day for follow-up. At the end of the 7th day, they were said to have completed the study. Routine haematological and biochemical investigations were performed at 0 hr, 24 hrs after drug administration, and on day 7. The study was monitored by a Data Safety Monitoring Board.

healthy human volunteers [2] = assay: Single ascending dose study: haematological parameters; type: in vivo; conditions: 400 mg
Source text: The study was approved by the Institute's Ethics Committee. The single ascending dose study and the pharmacokinetic study are registered with Central Trial Registry of India (CTRI/2012/07/002812; CTRI/2012/07/002832). Normal healthy male volunteers in the age group of 18–45 years were invited to join the trial. A detailed informed consent process of the volunteers was undertaken and screening of the volunteers was done after obtaining informed consent. They were recruited through contacts and hospital employees were excluded. The health status of the volunteers was determined by taking medical history, physical examination, routine haematology (haemoglobin, total lymphocyte count, differential count, and platelet count), clinical biochemistry (serum glutamic oxaloacetic transaminase (SGOT), serum glutamic pyruvic transaminase (SGPT), serum bilirubin, serum creatinine, blood urea, serum electrolytes, random blood sugar, total protein, and serum lipid profile), and urine and stool analysis (routine examination and microscopy). The volunteers were asked to report to the study site after 12 hours of fasting for the blood tests. Chest X-ray and 12-lead ECG were also taken. The participants were also screened for human immunodeficiency virus (HIV) and hepatitis B. The volunteers after giving informed consent were screened. The screening process was done latest within 1 month of admission for dosing. The volunteers who fulfilled the inclusion/exclusion criteria were admitted in the CPU the night before drug administration. Standardized dinner was served at 9 pm the night prior to dosing. On day 0, baseline blood sample for biochemical and haematological examination and stool and urine samples for routine and microscopy were taken. […] The subjects were attached to a cardiac monitor and vital HR, BP, ECG, oxygen saturation, and RR were recorded. Corrected QT interval using Fridericia's formula was calculated. Adverse events were assessed at specific time points (0.5, 1, 2, 4, 6, 8, 12, and 24 hrs after medication). […] The study was monitored by a Data Safety Monitoring Board.

rats = system: rats; design: method as in printed; conditions: preclinical, used for starting dose, ref not given; cited from earlier work
[3] = system: chloroquine sensitive P. berghei; design: method as in printed; conditions: chloroquine sensitive P. berghei in mice; background, ref not given; cited from earlier work
[4] = system: multidrug resistant P. yoelii; design: method as in printed; conditions: multidrug resistant P. yoelii in mice; background, ref not given; cited from earlier work
P. cynomolgi = system: P. cynomolgi; design: method as in printed; conditions: P. cynomolgi in rhesus monkeys; background, ref not given; cited from earlier work

**Q.** With `C=C(c1ccc(OC(C)(C)COC(=O)CCC(=O)O)cc1)C1COC2(OO1)C1CC3CC(C1)CC2C3` (stereo not shown) [CDRI 97/78, Mono[2methyl2[3(1spiro[tricycle[3.3.1.13,7]decane2,3′-[1,2,4]trioxan] 6′-ylethenyl)phenoxy]propyl] ester] as the molecule, how does the DBP (healthy human volunteers [1]; 80 mg) read?
**A.** The DBP was 73 ± 5.21.

**Q.** What about the SBP (healthy human volunteers [1]; 80 mg) of the same molecule?
**A.** The SBP was 112.17 ± 6.24.

**Q.** What about the DBP (healthy human volunteers [1]; 160 mg) of the same molecule?
**A.** The DBP was 77.17 ± 8.06.

**Q.** What about the SBP (healthy human volunteers [1]; 160 mg) of the same molecule?
**A.** The SBP was 119.5 ± 5.17.

**Q.** What about the DBP (healthy human volunteers [1]; 320 mg) of the same molecule?
**A.** The DBP was 82.33 ± 4.68.

**Q.** What about the SBP (healthy human volunteers [1]; 320 mg) of the same molecule?
**A.** The SBP was 127.5 ± 6.38.

**Q.** And the DBP (healthy human volunteers [1]; 400 mg)?
**A.** The DBP was 71.33 ± 8.19.

**Q.** And the SBP (healthy human volunteers [1]; 400 mg)?
**A.** The SBP was 111.83 ± 7.91.

**Q.** And the DBP (healthy human volunteers [1]; 500 mg)?
**A.** Its DBP is 71.83 ± 7.81.

**Q.** What about the SBP (healthy human volunteers [1]; 500 mg) of the same molecule?
**A.** Its SBP is 114.5 ± 8.34.

**Q.** And the DBP (healthy human volunteers [1]; 600 mg)?
**A.** Its DBP is 66.5 ± 6.53.

**Q.** What about the SBP (healthy human volunteers [1]; 600 mg) of the same molecule?
**A.** Its SBP is 112.83 ± 6.18.

**Q.** And the DBP (healthy human volunteers [1]; 700 mg)?
**A.** The DBP was 69 ± 8.48.

**Q.** And the SBP (healthy human volunteers [1]; 700 mg)?
**A.** The SBP was 115.5 ± 2.12.

**Q.** What about the “Corrected QT interval (Fridericia), change within treatment groups” value (healthy human volunteers [1]; 80-700 mg groups) of the same molecule?
**A.** Its value is “no statistically or clinically significant difference; also recorded: No clinically meaningful alteration”.

**Q.** What about the Diastolic blood pressure (healthy human volunteers [1]; 0 hours) of the same molecule?
**A.** The Diastolic blood pressure was 76.87 ± 8.74 mmHg.

**Q.** What about the Diastolic blood pressure (healthy human volunteers [1]; 0.5 hours) of the same molecule?
**A.** Its Diastolic blood pressure is 78.37 ± 8.86 mmHg.

**Q.** What about the Diastolic blood pressure (healthy human volunteers [1]; 1 hours) of the same molecule?
**A.** Its Diastolic blood pressure is 79.25 ± 13.46 mmHg.

**Q.** And the Diastolic blood pressure (healthy human volunteers [1]; 2 hours)?
**A.** The Diastolic blood pressure was 67.12 ± 6.49 mmHg.

**Q.** What about the Diastolic blood pressure (healthy human volunteers [1]; 4 hours) of the same molecule?
**A.** Its Diastolic blood pressure is 73.12 ± 12.32 mmHg.

**Q.** What about the Diastolic blood pressure (healthy human volunteers [1]; 6 hours) of the same molecule?
**A.** Its Diastolic blood pressure is 75.87 ± 8.11 mmHg.

**Q.** And the Diastolic blood pressure (healthy human volunteers [1]; 8 hours)?
**A.** The Diastolic blood pressure was 74 ± 11 mmHg.

**Q.** What about the Diastolic blood pressure (healthy human volunteers [1]; 12 hours) of the same molecule?
**A.** Its Diastolic blood pressure is 75 ± 10.03 mmHg.

**Q.** What about the “Pulse rate, respiratory rate and systolic blood pressure, change compared to baseline” value (healthy human volunteers [1]; any time point, all treatment groups) of the same molecule?
**A.** Its value is “None of the treatment groups demonstrated a significant alteration”.

**Q.** And the Hemoglobin (healthy human volunteers [2]; 7th day)?
**A.** The Hemoglobin was 14.35 ± 1.10 gm%.

**Q.** What about the Hemoglobin (healthy human volunteers [2]; 24 hr) of the same molecule?
**A.** The Hemoglobin was 14.92 ± 0.94 gm%.

**Q.** And the Hemoglobin (healthy human volunteers [2]; baseline)?
**A.** Its Hemoglobin is 14.25 ± 0.75 gm%.

**Q.** And the Maximum tolerated dose (rats)?
**A.** The Maximum tolerated dose was 100 mg/kg.

**Q.** And the Antimalarial activity [3]?
**A.** The Antimalarial activity was “powerful antimalarial activity”.

**Q.** What about the Antimalarial activity [4] of the same molecule?
**A.** The Antimalarial activity was “powerful antimalarial activity”.

**Q.** And the Antimalarial activity (P. cynomolgi)?
**A.** Its Antimalarial activity is “powerful antimalarial activity”.
